# Tests used:
# Test in all cases: KAM-matrix competition in K562 lysate;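 on 0.001 uM KAM: median log10 fold change of treatment over DMSO control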;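 on 0.01 uM KAM: median log10 fold change of treatment over DMSO control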;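 on 0.1 uM KAM: median log10 fold change of treatment over DMSO control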;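 on 1 uM KAM: median log10 fold change of treatment over DMSO control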;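 on 10 uM KAM: median log10 fold change of treatment over DMSO control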
# Assay type in all cases: binding
# PKMYT1 = molecular target: T1, PKMYT1 (Homo sapiens, UniProt Q99640);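 on 0.001 uM KAM: median log10 fold change of treatment over DMSO control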;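 on 0.01 uM KAM: median log10 fold change of treatment over DMSO control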;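 on 0.1 uM KAM: median log10 fold change of treatment over DMSO control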;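 on 1 uM KAM: median log10 fold change of treatment over DMSO control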;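 on 10 uM KAM: median log10 fold change of treatment over DMSO control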
# T1 construct: endogenous in cells; host or cells: K562
# T1 sequence (Q99640 1-499): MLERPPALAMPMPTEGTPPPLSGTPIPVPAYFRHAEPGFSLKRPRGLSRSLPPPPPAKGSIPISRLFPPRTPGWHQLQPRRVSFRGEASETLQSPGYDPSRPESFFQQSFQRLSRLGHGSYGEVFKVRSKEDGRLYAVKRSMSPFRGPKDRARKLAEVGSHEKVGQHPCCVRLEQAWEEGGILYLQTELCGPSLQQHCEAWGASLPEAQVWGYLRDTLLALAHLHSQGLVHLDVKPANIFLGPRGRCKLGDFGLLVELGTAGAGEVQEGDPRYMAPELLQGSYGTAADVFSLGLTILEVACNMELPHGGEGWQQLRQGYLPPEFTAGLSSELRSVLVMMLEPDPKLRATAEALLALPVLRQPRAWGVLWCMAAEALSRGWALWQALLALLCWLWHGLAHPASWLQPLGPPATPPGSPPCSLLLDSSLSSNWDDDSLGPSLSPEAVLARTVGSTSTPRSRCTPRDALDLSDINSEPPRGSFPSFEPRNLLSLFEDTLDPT
# Description: (§1) Supplement 12953_2017_125_MOESM1_ESM.zip/MS_Supp Info.xlsx, sheet "KAM" | column: 10 uM KAM; 1 uM KAM; 0.1 uM KAM; 0.01 uM KAM; 0.001 uM KAM; RB50
# MAPK3 = molecular target: T2, MAPK3 (Homo sapiens, UniProt P27361)
# T2 construct: endogenous in cells; host or cells: K562
# T2 sequence (P27361 whole entry): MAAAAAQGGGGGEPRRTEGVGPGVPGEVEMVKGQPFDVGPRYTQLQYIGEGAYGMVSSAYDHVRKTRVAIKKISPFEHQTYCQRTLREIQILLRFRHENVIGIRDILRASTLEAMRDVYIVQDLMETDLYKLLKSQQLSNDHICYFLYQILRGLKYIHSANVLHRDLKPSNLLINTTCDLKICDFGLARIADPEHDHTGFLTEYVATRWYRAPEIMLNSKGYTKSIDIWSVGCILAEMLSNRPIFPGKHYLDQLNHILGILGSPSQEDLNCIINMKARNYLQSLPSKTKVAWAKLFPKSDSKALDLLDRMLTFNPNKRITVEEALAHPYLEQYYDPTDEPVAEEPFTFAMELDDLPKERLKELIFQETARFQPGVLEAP
# Description: as §1
# RIPK1 = molecular target: T3, RIPK1 (Homo sapiens, UniProt Q13546);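 on 0.001 uM KAM: median log10 fold change of treatment over DMSO control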;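 on 0.01 uM KAM: median log10 fold change of treatment over DMSO control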;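 on 0.1 uM KAM: median log10 fold change of treatment over DMSO control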;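 on 1 uM KAM: median log10 fold change of treatment over DMSO control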;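 on 10 uM KAM: median log10 fold change of treatment over DMSO control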
# T3 construct: endogenous in cells; host or cells: K562
# T3 sequence (Q13546 1-671): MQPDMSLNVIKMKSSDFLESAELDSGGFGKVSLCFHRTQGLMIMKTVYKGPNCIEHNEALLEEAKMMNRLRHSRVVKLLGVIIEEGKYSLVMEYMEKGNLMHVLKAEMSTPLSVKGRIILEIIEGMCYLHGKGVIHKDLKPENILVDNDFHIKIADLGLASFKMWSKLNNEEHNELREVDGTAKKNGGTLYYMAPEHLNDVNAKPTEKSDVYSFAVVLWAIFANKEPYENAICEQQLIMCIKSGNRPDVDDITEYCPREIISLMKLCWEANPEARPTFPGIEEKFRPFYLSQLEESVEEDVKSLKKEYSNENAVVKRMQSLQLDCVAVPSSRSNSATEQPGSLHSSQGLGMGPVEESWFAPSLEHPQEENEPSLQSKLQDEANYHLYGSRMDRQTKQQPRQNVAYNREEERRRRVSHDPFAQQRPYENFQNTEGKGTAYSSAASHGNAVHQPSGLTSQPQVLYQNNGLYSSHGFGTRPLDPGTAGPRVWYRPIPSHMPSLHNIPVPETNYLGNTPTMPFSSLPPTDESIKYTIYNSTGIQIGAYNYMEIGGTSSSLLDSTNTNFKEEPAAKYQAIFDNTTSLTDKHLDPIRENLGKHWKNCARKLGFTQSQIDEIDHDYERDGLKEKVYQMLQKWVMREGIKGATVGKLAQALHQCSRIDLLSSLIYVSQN
# Description: as §1
# TTN = molecular target: T4, TTN (Homo sapiens, UniProt Q8WZ42);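 on 0.001 uM KAM: median log10 fold change of treatment over DMSO control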;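 on 0.01 uM KAM: median log10 fold change of treatment over DMSO control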;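 on 0.1 uM KAM: median log10 fold change of treatment over DMSO control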;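 on 1 uM KAM: median log10 fold change of treatment over DMSO control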;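 on 10 uM KAM: median log10 fold change of treatment over DMSO control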
# T4 construct: endogenous in cells; host or cells: K562
# Description: as §1
# [1] = KAM 0.001-10 uM, read-out: RB50 (the source's name)
compound,measurement,setting,value
N#CCc1ccc(Nc2nc(NCCCN)cc(Nc3cc(C4CC4)[nH]n3)n2)cc1 [KAM],IC50,PKMYT1; [1],> 10 µM
same,0.001 uM KAM,PKMYT1; relative to 0 uM KAM = 0,-0.05315
same,0.01 uM KAM,PKMYT1; relative to 0 uM KAM = 0,-0.03451
same,0.1 uM KAM,PKMYT1; relative to 0 uM KAM = 0,-0.2607
same,1 uM KAM,PKMYT1; relative to 0 uM KAM = 0,-0.4249
same,10 uM KAM,PKMYT1; relative to 0 uM KAM = 0,-0.2726
same,median Log10 fold change,MAPK3; 0.001 uM KAM,-0.06334
same,median Log10 fold change,MAPK3; 0.01 uM KAM,-0.0563
same,median Log10 fold change,MAPK3; 0.1 uM KAM,-0.1467
same,median Log10 fold change,MAPK3; 1 uM KAM,-0.2435
same,median Log10 fold change,MAPK3; 10 uM KAM,-0.361
same,IC50,MAPK3; read-out: RB50 (the source's name),2.36 µM
same,IC50,RIPK1; [1],> 10 µM
same,0.001 uM KAM,RIPK1; relative to 0 uM KAM = 0,-0.02132
same,0.01 uM KAM,RIPK1; relative to 0 uM KAM = 0,0.0003889
same,0.1 uM KAM,RIPK1; relative to 0 uM KAM = 0,-0.08047
same,1 uM KAM,RIPK1; relative to 0 uM KAM = 0,-0.1016
same,10 uM KAM,RIPK1; relative to 0 uM KAM = 0,-0.1828
same,IC50,TTN; [1],> 10 µM
same,0.001 uM KAM,TTN; relative to 0 uM KAM = 0,-0.03178
same,0.01 uM KAM,TTN; relative to 0 uM KAM = 0,0.01596
same,0.1 uM KAM,TTN; relative to 0 uM KAM = 0,-0.008464
same,1 uM KAM,TTN; relative to 0 uM KAM = 0,0.03427
same,10 uM KAM,TTN; relative to 0 uM KAM = 0,0.01084

# Source: PMC5513037, “Examining the influence of specificity ligands and ATP-competitive ligands on the overall effectiveness of bivalent kinase inhibitors” (Proteome Science, 2017)
